Patent US11007183B2, “Cancer treatments using combinations of PI3K/Akt pathway and ERK inhibitors” (BIOMED VALLEY DISCOVERIES, INC., priority 2013, dated 2021)

How the values were obtained:
[1] = test system: HCT116 human colorectal carcinoma xenograft; assay: HCT116 xenograft tumor growth delay (TGD) study; format: in vivo, mice
Procedure: Female athymic nude mice (Crl:NU(Ncr)-Foxn1^nu, Charles River) were eight weeks old with a body weight (BW) range of 14.6 to 25.7 grams on Day 1 of the study. The animals were fed ad libitum water (reverse osmosis, 1 ppm Cl), and NIH 31 Modified and Irradiated Lab Diet® consisting of 18.0% crude protein, 5.0% crude fat, and 5.0% crude fiber. The mice were housed on irradiated Enrich-O'Cobs™ Laboratory Animal Bedding in static microisolators on a 12-hour light cycle at 20-22° C. (68-72° F.) and 40-60% humidity.
HCT116 human colon carcinoma cells were cultured in RPMI-1640 medium supplemented with 10% fetal bovine serum, 2 mM glutamine, 100 units/mL penicillin G sodium, 100 μg/mL streptomycin sulfate, and 25 μg/mL gentamicin. The tumor cells were grown in tissue culture flasks in a humidified incubator at 37° C., in an atmosphere of 5% CO2 and 95% air.
The HCT116 cells used for implantation were harvested during exponential growth and resuspended in 50% Matrigel (BD Biosciences): 50% phosphate buffered saline at a concentration of 2.5×10^7 cells/mL. On the day of tumor implant, each test mouse was injected subcutaneously in the right flank with 5×10^6 cells (0.2 mL cell suspension), and tumor growth was monitored as the average size approached the target range of 100 to 150 mm^3. Tumors were measured in two dimensions using calipers, and volume was calculated using the formula: Tumor Volume (mm^3)=(w^2×l)/2 where w=width and l=length, in mm, of the tumor. Tumor weight may be estimated with the assumption that 1 mg is equivalent to 1 mm^3 of tumor volume.
Ten days after tumor implantation, designated as Day 1 of the study, the animals were sorted into nine groups (Groups 1-9) each consisting of fifteen mice and one group (Group 10) consisting of ten mice.
BVD-523 doses were prepared by suspending the required amount of BVD-523 powder in 1% carboxymethyl cellulose (CMC) in deionized water (“Vehicle”). A 10 mg/mL BVD-523 stock was prepared, and was used to dose the 100 mg/kg BVD-523 group. Aliquots of the stock were diluted with the vehicle to a concentration of 5.0 mg/mL, which provided a 50 mg/kg BVD-523 dosage in a dosing volume of 10 mL/kg. The BVD-523 doses were stored at 4° C. for up to one week. The 1% CMC vehicle was used to dose the control group.
Paclitaxel (Lot CP2N10007) was purchased as a dry powder from Phyton Biotech, LLC (Fort Worth, Tex.). A paclitaxel stock solution (30 mg/mL) in 50% ethanol: 50% Cremophor EL was prepared and stored at room temperature protected from light during the dosing period. On each day of dosing, an aliquot of the paclitaxel stock was diluted with 5% dextrose in water (D5W) to yield a 3.0 mg/mL paclitaxel dosing solution in a vehicle consisting of 5% ethanol: 5% Cremophor EL: 90% D5W.
On Day 1 of the study, mice were sorted into nine groups (Group 1-9) each consisting of fifteen mice and one group (Group 10) consisting of ten mice, and dosing was initiated according to the treatment plan summarized in Table 4 below. All doses were given by oral gavage (p.o.) except paclitaxel, which was given i.v. For each agent, the dosing volume of 10 mL/kg (0.2 mL per 20 grams of BW) was scaled to the BW of the individual animal. […] For bid dosing, dosing was initiated in the afternoon of Day 1, so that one dose was given on the first day (“first day 1 dose”).
Group 1 received 1% CMC vehicle p.o. bid to end, and served as the control group for calculation of % TGD. Group 10 received paclitaxel i.v. at 30 mg/kg once every other day (qod) for five doses (qod×5), and served as the positive control for the model.
Groups 4 and 5 received 50 and 100 mg/kg BVD-523, respectively, p.o. bid to end.

[2] = test system: HCT116 PIK3CA (+/−) cells; assay: Combination proliferation assay (Loewe/Bliss); format: cell-based, human; settings: 2.5% serum
Procedure: Test compounds were incubated with the cells for 72 h at 37° C., 5% CO2 in a humidified atmosphere. CellTiter-Glo® reagent (Promega, Madison, Wis.) was added according to manufacturer's instructions and luminescence detected using the BMG FLUOstar plate reader (BMG Labtech, Ortenberg, Germany). The average media only background value was deducted and the data analysed. For the 10×8 combination assays the combination interactions across the dose matrix were determined by the Loewe Additivity and Bliss independence models using ChaliceTM Combination Analysis Software (Horizon Discovery Group, Cambridge, Mass.) as outlined in the user manual (available at chalice.horizondiscovery.com/chalice-portal/documentation/analyzer/home.jsp). Synergy is determined by comparing the experimentally observed level of inhibition at each combination point with the value expected for additivity, which is derived from the single-agent responses along the edges of the matrix. Potential synergistic interactions were identified by displaying the calculated excess inhibition over that predicted as being additive across the dose matrix as a heat map, and by reporting a quantitative 'Synergy Score' based on the Loewe model. The single agent data derived from the combination assay plates were presented as dose-response curves generated in GraphPad Prism (GraphPad Software, La Jolla, Calif.) (plotted using percentage viability relative to DMSO only treated controls). […] (Cbliss is the fractional inhibition that would be expected if the combination of the two drugs were exactly additive). Cbliss values were then subtracted from the experimentally observed fractional inhibition values to give an 'excess over Bliss' value which were plotted as heat maps±SD.

[3] = Group 1 (vehicle) vs Group 4 (BVD-523 50 mg/kg po bid to end)
[4] = Group 4: BVD-523 50 mg/kg po bid to end
[5] = Group 5: BVD-523 100 mg/kg po bid to end

SMILES: CC(C)Nc1cc(-c2c[nH]c(C(=O)N[C@H](CO)c3cccc(Cl)c3)c2)c(Cl)cn1 [BVD-523]
- Overall activity in the HCT116 xenograft model ([1]; BVD-523 50 mg/kg p.o. bid to end): active
- Are survival curves diff.? [1, 3]: Yes
- Hazard Ratio [1, 3]: 4.813
- Logrank test Chi square [1, 3]: 21.86
- Median survival Ratio (Column A/Column B) [1, 3]: 0.7517
- % TGD [1, 4]: 33%
- MTV (n): number of animals on D 45 (45-day survivors) [1, 4]: (5)
- MTV D 45 (median tumor volume) [1, 4]: 1666 mm^3
- Median TTE [1, 4]: 43.5 days
- Regressions CR [1, 4]: 0
- Regressions PR [1, 4]: 0
- Regressions TFS [1, 4]: 0
- T − C [1, 4]: 10.8 days
- % TGD [1, 5]: 38%
- MTV (n): number of animals on D 45 (45-day survivors) [1, 5]: (11)
- MTV D 45 (median tumor volume) [1, 5]: 405 mm^3
- Median TTE [1, 5]: 45.0 days
- Regressions CR [1, 5]: 0
- Regressions PR [1, 5]: 0
- Regressions TFS [1, 5]: 0
- T − C [1, 5]: 12.3 days
- Single agent sensitivity relative to the parental line ([2]; HCT116 line lacking the PIK3CA mutation vs parental): more sensitive
- IC50 ([2]; Homo sapiens, HCT-116, HCT116 PIK3CA (+/−), mean of n=4 separate combinations, read-out: IC50 (single agent, derived from combination assay plates)): 0.04 µM
